Measurements taken from ChEMBL document CHEMBL4196033, “Potent hydrazone derivatives targeting esophageal cancer cells” (Eur J Med Chem, 2018).
pIC50: −log10 of the molar value.

What was measured:
Assay type in all cases: functional, cell-based
PC-3 = experiment: Antiproliferative activity against human PC3 cells after 72 hrs by MTT assay; settings: PC-3, 72 h
ECa-109 cell line = experiment: Antiproliferative activity against human EC109 cells after 72 hrs by MTT assay; settings: ECa-109, 72 h
MCF7 = experiment: Antiproliferative activity against human MCF7 cells after 72 hrs by MTT assay; settings: MCF7, 72 h
EC9706 = experiment: Antiproliferative activity against human EC9706 cells after 72 hrs by MTT assay; settings: EC9706, 72 h
MGC-803 = experiment: Antiproliferative activity against human MGC803 cells after 72 hrs by MTT assay; settings: MGC-803, 72 h
SMMC-7721 = experiment: Antiproliferative activity against human SMMC7721 cells after 72 hrs by MTT assay; settings: SMMC-7721, 72 h

Row | Compound | pIC50 (PC-3) | pIC50 (ECa-109 cell line) | pIC50 (MCF7) | pIC50 (EC9706) | pIC50 (MGC-803) | pIC50 (SMMC-7721)
1 | C/C(=N\NC(=O)c1cccc(S(=O)(=O)N2CCOCC2)c1)c1ccc(F)cc1 | 4.09 | < 4.00 | < 4.00 | < 4.00 | < 4.00 | < 4.00
2 | O=C(N/N=C/c1cc(Br)ccc1O)c1cccc(S(=O)(=O)N2CCOCC2)c1 | 5.14 | 4.93 | 4.57 | 4.53 | 4.83 | 5.00
3 | C/C(=N\NC(=O)c1cccc(S(=O)(=O)N2CCOCC2)c1)c1cccc(N)c1 | < 4.00 | < 4.00 | < 4.00 | < 4.00 | < 4.00 | < 4.00
4 | C/C(=N\NC(=O)c1cccc(S(=O)(=O)N2CCOCC2)c1)c1cccc(N)c1O | 5.63 | 5.30 | 6.00 | 5.45 | 6.28 | 5.63
5 | CCOc1cccc(/C=N/NC(=O)c2cccc(S(=O)(=O)N3CCOCC3)c2)c1O | 4.82 | 4.78 | 4.71 | 4.81 | 4.75 | 5.16
6 | C/C(=N\NC(=O)c1cccc(S(=O)(=O)N2CCOCC2)c1)c1ccccc1O | 5.55 | 5.26 | 5.27 | 5.91 | 5.91 | 5.86
7 | C/C(=N\NC(=O)c1cccc(S(=O)(=O)N2CCOCC2)c1)c1cc(Br)ccc1O | 5.16 | 5.28 | 5.11 | 4.61 | 4.75 | 5.62
8 | C/C(=N\NC(=O)c1cccc(S(=O)(=O)N2CCOCC2)c1)c1cc(F)ccc1O | 5.36 | 5.49 | 5.18 | 5.66 | 5.65 | 5.94
9 | O=C(N/N=C/c1cc(Br)cc(Br)c1O)c1cccc(S(=O)(=O)N2CCOCC2)c1 | 5.01 | 4.99 | 4.80 | 5.61 | 4.75 | 5.14
10 | C/C(=N\NC(=O)c1cccc(S(=O)(=O)N2CCOCC2)c1)c1cc(O)ccc1O | < 4.00 | 4.67 | < 4.00 | 5.45 | 5.04 | < 4.00
11 | C/C(=N\NC(=O)c1cccc(S(=O)(=O)N2CCOCC2)c1)c1ccccc1 | < 4.00 | < 4.00 | < 4.00 | < 4.00 | < 4.00 | < 4.00
12 | O=C(N/N=C/c1ccccc1O)c1cccc(S(=O)(=O)N2CCOCC2)c1 | 4.86 | 4.84 | 4.54 | 4.71 | 4.60 | 4.92
13 | C/C(=N\NC(=O)c1cccc(S(=O)(=O)N2CCOCC2)c1)c1ccc(O)cc1 | 4.44 | 4.05 | < 4.00 | 4.15 | 4.15 | 4.05
14 | O=C(N/N=C/c1ccccn1)c1cccc(S(=O)(=O)N2CCOCC2)c1 | 4.05 | 4.25 | < 4.00 | 4.35 | 4.09 | < 4.00
15 | NNC(=O)c1cccc(S(=O)(=O)N2CCOCC2)c1 |  | < 4.00 |  | < 4.00 |  | 
16 | O=C(N/N=C/c1cc(Cl)ccc1O)c1cccc(S(=O)(=O)N2CCOCC2)c1 | 4.98 | 5.55 | 4.78 | 5.67 | 4.96 | 5.17
17 | C/C(=N\NC(=O)c1cccc(S(=O)(=O)N2CCOCC2)c1)c1cccc(O)c1 | < 4.00 | < 4.00 | < 4.00 | < 4.00 | < 4.00 | < 4.00
18 | O=c1[nH]cc(F)c(=O)[nH]1 [FLUOROURACIL] | 5.20 | 5.22 | 4.73 | 5.29 | 5.03 | 4.86
19 | O=C(N/N=C/c1cccs1)c1cccc(S(=O)(=O)N2CCOCC2)c1 | < 4.00 | < 4.00 | < 4.00 | < 4.00 | < 4.00 | < 4.00
20 | O=C(N/N=C/c1ccco1)c1cccc(S(=O)(=O)N2CCOCC2)c1 | < 4.00 | < 4.00 | < 4.00 | < 4.00 | < 4.00 | < 4.00
21 | CCN(CC)c1ccc(/C=N/NC(=O)c2cccc(S(=O)(=O)N3CCOCC3)c2)c(O)c1 | 4.85 | 6.14 | 5.45 | 6.04 | 5.39 | 4.57
